Active and inactive are the calls of the source. Some results are limits rather than exact numbers.

As usually defined, the EC50 is the concentration needed to bring the measured effect to its halfway point. By IC50 is commonly meant the point on the concentration scale where inhibition reaches its midpoint. Usually AC50 stands for the concentration giving half of the maximal activity seen.

One assay relates to BJ. As to the kind of experiment: cytotoxicity toward BJ-TERT fibroblasts, dose response, cell-based, RAS-independent, luminescence (AID 1933). The settings on record: Homo sapiens. The assay is classed as functional.
Assay [1] can be described thus: cytotoxicity toward DRD oncogenic fibroblasts, dose response, cell-based, non-viral oncogenic, luminescence (AID 1934). The assay is classed as functional. The settings on record: Homo sapiens.
For another assay, the target named is Nonstructural protein 1 (Influenza A virus, UniProt Q194T2). The assay is classed as functional, Influenza A virus (A/California/07/2009(H1N1)).
Sequence of Nonstructural protein 1 (Q194T2 whole entry): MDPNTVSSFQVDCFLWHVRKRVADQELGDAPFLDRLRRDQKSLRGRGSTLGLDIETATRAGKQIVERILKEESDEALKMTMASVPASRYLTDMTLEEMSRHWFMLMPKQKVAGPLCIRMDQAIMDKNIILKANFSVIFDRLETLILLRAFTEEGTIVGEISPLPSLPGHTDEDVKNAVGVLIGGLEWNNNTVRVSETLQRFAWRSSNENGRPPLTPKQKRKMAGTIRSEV
Assay [2] is described as follows: Counterscreen for AddAB inhibitors: absorbance-based bacterial cell-based high throughput dose response assay for inhibitors of bacterial viability. [Related pubchem assays (depositor defined):AID435030, AID449728, AID449731, AID488942, AID488955, AID488956]. Format: functional. (Counterscreens check selectivity or assay interference.)
The subject of a further assay is Jurkat. Kind of assay: SAR Analysis of small molecule inhibitors of T-cell specific antigen receptor-induced NF-kB activation in a Jurkat cell line using a luminescence assay - Set 2. [Related pubchem assays (depositor defined):AID435003, AID435012, AID465]. Particulars: Homo sapiens. Format: functional, cell-based.
The test system of another assay is INS1. Kind of assay: beta cell apoptosis inhibitors, cytokine rescue, dose response, luminescence, retest (AID 449756).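 Note: cell death triggered by IL-1 beta plus TNF-alpha plus IFN-gamma mixture; protective hits raise ATP signal compared with cytokine alone wells.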 The assay is classed as functional, cell-based. Particulars: Rattus norvegicus.
The nature of assay [3]: Shn3 3'UTR reporter inhibitors, dose response, cell-based, Clone20 osteoblasts, firefly luciferase, cherry-picked (AID 624132).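 Note: firefly luciferase luminescence from reporter carrying the Shn3 3'UTR in osteoblasts.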 The assay is classed as functional.
Assay [4] in a line: HepG2 cell cytotoxicity, dose response, cytotoxicity control for Shn3 inhibitor project, CellTiter-Glo, cherry-picked (AID 624134). The assay is classed as functional, cell-based.
Assay [5] in a line: control 3'UTR Renilla luciferase suppression, dose response, counter-screen for Shn3 inhibitor project, cell-based, Clone20-Shn3RL, cherry-picked (AID 624133). The assay is classed as functional.
Assay [6] deals with T1, Sentrin-specific protease 8 (Homo sapiens, UniProt Q96LD8).
T1 sequence (Q96LD8 whole entry): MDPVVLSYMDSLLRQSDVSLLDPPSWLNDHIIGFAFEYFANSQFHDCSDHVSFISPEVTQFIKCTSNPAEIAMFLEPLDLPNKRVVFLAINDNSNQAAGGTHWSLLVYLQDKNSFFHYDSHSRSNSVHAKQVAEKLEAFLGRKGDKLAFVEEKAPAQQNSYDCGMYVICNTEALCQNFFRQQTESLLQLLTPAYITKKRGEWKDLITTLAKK
The assay is classed as functional.

Another assay deals with Caspase-7 (Homo sapiens, UniProt P55210). As to the kind of experiment: human caspase-7 inhibitors, dose response, selectivity assay for caspase-6 inhibitor project, biochemical, DEVD-R110 fluorescence, cherry-pick (AID 743295). The assay is classed as […].
Sequence of Caspase-7 (P55210 24-198 limits assumed): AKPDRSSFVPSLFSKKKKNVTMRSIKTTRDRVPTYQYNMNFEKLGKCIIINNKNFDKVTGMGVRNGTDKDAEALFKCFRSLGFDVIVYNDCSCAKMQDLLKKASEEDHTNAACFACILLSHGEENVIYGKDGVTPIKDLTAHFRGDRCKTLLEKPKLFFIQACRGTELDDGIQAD
Sequence of Caspase-7 (P55210 207-303 limits assumed): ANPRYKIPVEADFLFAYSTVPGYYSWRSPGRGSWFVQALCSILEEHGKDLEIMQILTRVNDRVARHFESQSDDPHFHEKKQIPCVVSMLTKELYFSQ

`CCCCC(=O)NC(c1ccc(N(C)C)cc1)c1ccc2cccnc2c1O` (stereo unspecified): the figures for the EC50 (in the assay with BJ; in [1]) were 1.05 µM (active) and 2.51 µM (active), respectively. Further, the figures for the IC50 (at Nonstructural protein 1; in assay [2]; with Jurkat) were 24.9 µM (active), > 119 µM (inactive) and 1.7 µM (active), respectively. Also, the half-maximal activity concentration (AC50) with INS1 was 0.626 µM (active); in assay [3], 0.98 µM (active); in [4] it was 2.47 µM (active); in assay [5], > 70 µM (inactive).

Consider `CN(CC(=O)Nc1ccccc1Cl)C(=O)COC(=O)c1ccc([N+](=O)[O-])s1`, for which the IC50 in assay [6] was 3.95 µM (active). Also, the AC50 on Caspase-7 is 20.6 µM (active).

For the origin of these results see ChEMBL document CHEMBL1201862, “PubChem BioAssay data set” (2004).
